Results from patent publication US20170087113A1, “METHODS FOR TREATING UREA CYCLE DISORDERS TO PREVENT HYPERAMMONEMIC CRISES BY CONTROLLING BLOOD AMMONIA LEVELS” (HORIZON THERAPEUTICS, LLC, priority 2014, published 2017).

Key:
UCD patients [1] = experiment: Occurrence of hyperammonemic crises (HAC): 12 months pre-enrollment on NaPBA versus 12-month GPB treatment (studies HPN-100-005, -007, -012); type: in vivo, human; conditions: for # of HA events (total no. of HAC): 12 months pre-study (NaPBA) or during study (GPB); for # of HACs / Subjects with 1 or more HACs: subjects ages 6 years or higher, total N=77, pre-study (NaPBA) or study (GPB)
Excerpt: Data from four short-term switchover (SO) studies and three 12-month safety extension (SE) studies in adult and pediatric UCD patients were included in the analyses; all have been previously described. […] Most patients completing these protocols plus additional patients (a total of 100 of whom 49 were pediatric) were enrolled into safety extension studies and received GPB for 12 months (Diaz 2013), (Mokhatarani 2013), (Berry 2014).
All protocols and informed consents were reviewed and approved by the Investigational Review Board of each participating institution prior to initiation. […] In all studies, patients received GPB three times daily (or more frequently in small children to match their prior NaPBA schedule) at a daily dose equivalent to their previously prescribed NaPBA dose. […] Fasting ammonia and glutamine levels were analyzed as a predictor of HACs during long-term treatment.
(§1) During the 12 month studies, blood samples for ammonia and glutamine analyses were collected monthly and information on HACs was recorded. […] Ammonia and glutamine concentrations were measured by an accredited hospital laboratory at each study site and ammonia values were normalized to a standard range of 9 to 35 μmol/L.
Data for 100 UCD subjects from three clinical trials (HPN-100-005, HPN-100-007, and HPN-100-012) were analyzed to evaluate the correlation between fasting ammonia levels and HAC (Table 1). Patients were treated for 12 months with GPB during the study. There was an almost equal split in the number of subjects who were adults (51%) and children (49%), defined as age<18 years at the time of enrollment. In this population, 30 patients had experienced a total of 54 HACs in the 12 months prior to the study and 19 patients experienced a total of 27 HACs during the study (Table 1). Baseline ammonia was defined as the subject's fasting ammonia level taken either at month zero or at the screening visit depending on which study the subject was enrolled in and whether the subject was enrolled in previous studies.

blood ammonia = experiment: Total ammonia exposure (TNAUC of monthly ammonia) during 12-month GPB treatment; type: in vivo, human; parameters: TNAUC ammonia, mean: unit not given beside the values; conditions: for TNAUC ammonia, mean: patients with HAC, N=19; for TNAUC ammonia, mean (SD): patients with no HAC, N=81
Description: as §1
The relationship between total ammonia exposure over time and the risk of HAC occurrence was explored by calculating time normalized area under the curve (TNAUC12months) for ammonia for patients with and without an HAC during the 12-month treatment with GPB (Table 13). The AUC for ammonia, measured monthly, was calculated for each patient using the trapezoid rule over the course of the 12 month study. To normalize the AUC, TNAUCxmonth, AUC was divided by the final study month of an ammonia assessment.

UCD patients [2] = experiment: Duration of HAC during the 12-month GPB studies; type: in vivo, human
Description: The relationship between ammonia exposure and duration of HAC was analyzed. Ammonia exposure was characterized three different ways: peak ammonia during crisis, total ammonia during crisis and ammonia at time of admission. The majority of the HACs typically lasted a day, and a steep drop off in the distribution was seen after 2 days. (Note: two subjects were excluded with 20 days of duration of HAC in this analyses).

venous ammonia = conditions: study HPN-100-006 (Diaz 2013); cited from earlier work
glutamine = experiment: Glutamine levels and exposure during 12-month GPB treatment; type: in vivo, human
Description: as §1
The relationship between glutamine levels and ammonia categories was also analyzed. […] Glutamine levels were analyzed over the 12 month study period in patients treated for 12 months with GPB. Monthly glutamine levels were generally higher in patients in the higher baseline ammonia ULN groups and, by three months of treatment, had decreased in the patients with the highest baseline glutamine at baseline (FIG. 14A).

[3] = all patients N=100, pre-study (NaPBA) or during study (GPB)
[4] = study 005, N=17, pre-study (NaPBA) or during study (GPB)
[5] = study 007, N=60, pre-study (NaPBA) or during study (GPB)
[6] = study 012, N=23, pre-study (NaPBA) or during study (GPB)

sodium phenylbutyrate [NaPBA]
12-month incidence of HAC (UCD patients [1]; adult (≧18 years)): 0.832
Proportion of patients who experienced an HAC (UCD patients [1]; adult (≧18 years)): 17.7%
# of HA events (total no. of HAC) (UCD patients [1]; all patients N=100): 54
N with ≧1 HA events (number of patients with HAC) (UCD patients [1]; [3]): 30
Proportion of patients who experienced an HAC (UCD patients [1]; [3]): 30.0%
12-month incidence of HAC (UCD patients [1]; female): 0.712
Proportion of patients who experienced an HAC (UCD patients [1]; female): 23.9%
12-month incidence of HAC (UCD patients [1]; male): 0.516
Proportion of patients who experienced an HAC (UCD patients [1]; male): 42.4%
12-month incidence of HAC (UCD patients [1]; non-white): 0.660
Proportion of patients who experienced an HAC (UCD patients [1]; non-white): 36.8%
12-month incidence of HAC (UCD patients [1]; pediatric (<18 years)): 0.338
Proportion of patients who experienced an HAC (UCD patients [1]; pediatric (<18 years)): 42.9%
# of HA events (UCD patients [1]; [4]): 8
N with ≧1 HA events (UCD patients [1]; [4]): 5
# of HA events (UCD patients [1]; [5]): 17
N with ≧1 HA events (UCD patients [1]; [5]): 10
# of HA events (UCD patients [1]; [6]): 29
N with ≧1 HA events (UCD patients [1]; [6]): 15
# of HACs (UCD patients [1]): 25
Subjects with 1 or more HACs (UCD patients [1]): 15
12-month incidence of HAC (UCD patients [1]; white): 0.564
Proportion of patients who experienced an HAC (UCD patients [1]; white): 28.4%

O=C(CCCc1ccccc1)OCC(COC(=O)CCCc1ccccc1)OC(=O)CCCc1ccccc1 [GPB, glycerol phenylbutyrate]
TNAUC ammonia, mean (blood ammonia; Month 0-3): 33.3
TNAUC ammonia, mean (SD) (blood ammonia; Month 0-3): 23.5 (13.62)
TNAUC ammonia, mean (blood ammonia; Month 0-6): 33.0
TNAUC ammonia, mean (SD) (blood ammonia; Month 0-6): 24.0 (13.85)
TNAUC ammonia, mean (blood ammonia; Month 0-9): 33.4
TNAUC ammonia, mean (SD) (blood ammonia; Month 0-9): 23.7 (12.56)
TNAUC ammonia, mean (blood ammonia; Month 0-12): 35.0
TNAUC ammonia, mean (SD) (blood ammonia; Month 0-12): 23.6 (11.94)
Duration of HAC that lasted less than 2 days (UCD patients [2]; overall): about 64%
Duration of HA crisis 1-1.99 days (UCD patients [2]; study 005): 0.0%
Duration of HA crisis 2-2.99 days (UCD patients [2]; study 005): 50.0%
Duration of HA crisis <1 days (UCD patients [2]; study 005): 50.0%
Duration of HA crisis >3 days (UCD patients [2]; study 005): 0.0%
Duration of HA crisis, median (UCD patients [2]; study 005): 1.27 days
Duration of HA crisis, mean (UCD patients [2]; study 005, N=2): 1.27 days
Duration of HA crisis 1-1.99 days (UCD patients [2]; study 007): 16.7%
Duration of HA crisis 2-2.99 days (UCD patients [2]; study 007): 33.3%
Duration of HA crisis <1 days (UCD patients [2]; study 007): 41.7%
Duration of HA crisis >3 days (UCD patients [2]; study 007): 8.3%
Duration of HA crisis, median (UCD patients [2]; study 007): 1.36 days
Duration of HA crisis, mean (UCD patients [2]; study 007, N=12): 1.95 days
Duration of HA crisis 1-1.99 days (UCD patients [2]; study 012): 18.2%
Duration of HA crisis 2-2.99 days (UCD patients [2]; study 012): 18.2%
Duration of HA crisis <1 days (UCD patients [2]; study 012): 54.6%
Duration of HA crisis >3 days (UCD patients [2]; study 012): 9.1%
Duration of HA crisis, median (UCD patients [2]; study 012): 0.92 days
Duration of HA crisis, mean (UCD patients [2]; study 012, N=11): 1.53 days
Duration of HA crisis 1-1.99 days (UCD patients [2]; total, N=25): 16.0%
Duration of HA crisis 2-2.99 days (UCD patients [2]; total, N=25): 28.0%
Duration of HA crisis >3 days (UCD patients [2]; total, N=25): 8.0%
Duration of HA crisis, mean (UCD patients [2]; total, N=25): 1.71 days
Duration of HA crisis, median (UCD patients [2]; total, N=25): 1.00 days
Ammonia control of GPB versus NaPBA as assessed by venous ammonia (venous ammonia): non-inferiority
Change of glutamine levels during GPB treatment (glutamine; patients with the highest baseline glutamine, by three months of treatment): decreased
Total glutamine exposure, TNAUC12month (glutamine; subjects with an HAC during the study): 720.9 μmol/L*m
Total glutamine exposure, TNAUC12month (glutamine; subjects without an HAC during the study): 699.4 μmol/L*m
Lower HAC incidence rate during study (GPB) than pre-enrollment (UCD patients [1]; 0.288 versus […]): roughly 50%
Proportion of patients who experienced an HAC (UCD patients [1]; Group 1 study sites (33 patients, >50% with baseline ammonia <0.5 ULN)): 12%
Proportion of patients who experienced an HAC (UCD patients [1]; Group 2 study sites (29 patients)): 21%
Proportion of patients who experienced an HAC (UCD patients [1]; Group 3 study sites (38 patients)): 24%
# HAC (UCD patients [1]; Month 0-3 of GPB treatment): 5
% of Total HAC (UCD patients [1]; Month 0-3 of GPB treatment): (18.5%)
HAC Incidence Rate/month (UCD patients [1]; Month 0-3 of GPB treatment): 0.0170
# HAC (UCD patients [1]; Month 0-6 of GPB treatment): 13
% of Total HAC (UCD patients [1]; Month 0-6 of GPB treatment): (48.1%)
HAC Incidence Rate/month (UCD patients [1]; Month 0-6 of GPB treatment): 0.0224
# HAC (UCD patients [1]; Month 0-9 of GPB treatment): 20
% of Total HAC (UCD patients [1]; Month 0-9 of GPB treatment): (74.1%)
HAC Incidence Rate/month (UCD patients [1]; Month 0-9 of GPB treatment): 0.0234
# HAC (UCD patients [1]; Month 0-12 of GPB treatment): 27
% of Total HAC (UCD patients [1]; Month 0-12 of GPB treatment): (100%)
HAC Incidence Rate/month (UCD patients [1]; Month 0-12 of GPB treatment): 0.0240
Proportion of patients who experienced an HAC during the study (UCD patients [1]; OTC deficiency (n=69)): 18.8%
12-month incidence of HAC (UCD patients [1]; adult (≧18 years)): 0.371
Proportion of patients who experienced an HAC (UCD patients [1]; adult (≧18 years)): 13.7%
Proportion of patients with no HAC (UCD patients [1]; adult ≧18 years, during study): 86.3%
Subjects who had not experienced an HAC (Kaplan-Meier, HAC-free survival) (UCD patients [1]; after about one year of follow-up during treatment with GPB): 80%
Proportion of patients who experienced an HAC (UCD patients [1]; age 6-11 years, during study): 23.5%
Proportion of patients with no HAC (UCD patients [1]; age 6-11 years, during study): 76.5%
Proportion of patients who experienced an HAC (UCD patients [1]; age 12-17 years, during study): 11.1%
Proportion of patients with no HAC (UCD patients [1]; age 12-17 years, during study): 88.9%
Proportion of patients who experienced an HAC (UCD patients [1]; age <6 years, during study): 30.4%
Proportion of patients with no HAC (UCD patients [1]; age <6 years, during study): 69.6%
# of HA events (total no. of HAC) (UCD patients [1]; all patients N=100): 27
N with ≧1 HA events (number of patients with HAC) (UCD patients [1]; [3]): 19
Proportion of patients who experienced an HAC (UCD patients [1]; [3]): 19.0%
Proportion of patients with no HAC (UCD patients [1]; all patients, during study): 81.0%
Proportion of patients with no HAC (UCD patients [1]; baseline ammonia 0-<0.5 ULN, during study): 89.7%
Proportion of patients with no HAC (UCD patients [1]; baseline ammonia 0.5-<1.0 ULN, during study): 85.3%
Proportion of patients with no HAC (UCD patients [1]; baseline ammonia ≧1 ULN, during study): 63.0%
12-month incidence of HAC (UCD patients [1]; female): 0.314
Proportion of patients who experienced an HAC (UCD patients [1]; female): 16.4%
Proportion of patients with no HAC (UCD patients [1]; female, during study): 83.6%
12-month incidence of HAC (UCD patients [1]; male): 0.275
Proportion of patients who experienced an HAC (UCD patients [1]; male): 24.2%
Proportion of patients with no HAC (UCD patients [1]; male, during study): 75.8%
Proportion of patients who experienced an HAC during the study (UCD patients [1]; non-OTC deficiencies): 19.4%
12-month incidence of HAC (UCD patients [1]; non-white): 0.248
Proportion of patients who experienced an HAC (UCD patients [1]; non-white): 21.1%
Proportion of patients with no HAC (UCD patients [1]; non-white, during study): 78.9%
12-month incidence of HAC (UCD patients [1]; pediatric (<18 years)): 0.209
Proportion of patients who experienced an HAC (UCD patients [1]; pediatric (<18 years)): 24.5%
Proportion of patients with no HAC (UCD patients [1]; pediatric <18 years, during study): 75.5%
# of HA events (UCD patients [1]; [4]): 3
N with ≧1 HA events (UCD patients [1]; [4]): 3
# of HA events (UCD patients [1]; [5]): 12
N with ≧1 HA events (UCD patients [1]; [5]): 9
# of HA events (UCD patients [1]; [6]): 12
N with ≧1 HA events (UCD patients [1]; [6]): 7
# of HACs (UCD patients [1]): 15
Subjects with 1 or more HACs (UCD patients [1]): 12
12-month incidence of HAC (UCD patients [1]; white): 0.296
Proportion of patients who experienced an HAC (UCD patients [1]; white): 18.5%
Proportion of patients with no HAC (UCD patients [1]; white, during study): 81.5%
